Data on 51 molecules can be found in US12116358B2, “Substituted indoles and methods of use thereof” (EPIZYME, INC., priority 2018, dated 2024).

Assay [1] concerns H3K36me3 in A549 cells. Briefly: In-Cell Western (ICW) assay of SETD2 inhibitors (A549 assay). Format: cell-based, human. Conditions: A549 cells, read-out: SETD2 A549. The gist of the method: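 A549 cells seeded at 4,000/well onto compound and incubated 3 days at 37° C. Methanol-fixed cells stained overnight at 4° C with anti-H3K36me3 (1:1000), then IRDye 800CW secondary with DRAQ5 DNA counterstain. Plates read by Licor imaging at 700 and 800 channels.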

Assay [2] addresses T1, SETD2(1434-1711) (Homo sapiens, UniProt Q9BYW2).
T1 construct: SETD2 (1434-1711) Assay; catalogue N/A
T1 sequence (Q9BYW2 1434-1711): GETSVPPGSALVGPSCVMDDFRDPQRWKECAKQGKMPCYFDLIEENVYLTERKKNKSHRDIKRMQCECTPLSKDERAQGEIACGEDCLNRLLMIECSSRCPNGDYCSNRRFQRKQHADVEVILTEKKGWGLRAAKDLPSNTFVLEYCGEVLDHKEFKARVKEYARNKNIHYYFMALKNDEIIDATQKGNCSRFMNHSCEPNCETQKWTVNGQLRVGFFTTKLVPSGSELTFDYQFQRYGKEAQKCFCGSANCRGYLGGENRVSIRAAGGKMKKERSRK
As to the kind of experiment: SETD2 (1434-1711) assay. Format: biochemical. Particulars: read-out: SETD2 (1434-1711).

Like-named read-outs stand apart in the source and are kept apart here.

With `Cc1ccc(F)c2cc(C(=O)N[C@@H]3CCC[C@@H](c4ccncn4)C3)[nH]c12` [compound 1064], the IC50 is > 2000 nM in assay [1] (Homo sapiens) and 2300 nM in assay [2].
As to `CCN(CC)CCS(=O)(=O)N1CCN(c2cccc(NC(=O)c3cc4cccc(C)c4[nH]3)c2)CC1` [compound 405], the figures for the IC50 in assay [1] and in assay [2] were 2800 nM and 400 nM, respectively.
On to `Cc1ccc(F)c2cc(C(=O)Nc3cc(F)cc(N4CC5(CCN(CC(F)F)CC5)C4)c3)[nH]c12` [compound 40], for which the IC50 is 100 nM in assay [1] and 40 nM in assay [2].
`Cc1ccc(N2CCN(C)CC2)cc1NC(=O)c1cc2cccc(C)c2[nH]1` [compound 469]: the IC50 in assay [1] (Homo sapiens) is 7900 nM; in assay [2] it was 1400 nM.
Consider `Cc1ccc(F)c2cc(C(=O)NC(C(=O)N3CCOCC3)c3ccccn3)[nH]c12` (stereo not drawn) [compound 560], for which the IC50 is > 25000 nM in assay [1] (Homo sapiens) and > 10000 nM in assay [2].
Regarding `Cc1ccc(F)c2cc(C(=O)N[C@@H]3CCC[C@H](N4CCN(CC(F)(F)F)CC4)C3)[nH]c12` [compound 826], the results for the IC50 in assay [1] and in assay [2] were 500 nM and 100 nM, respectively.
With `Cc1cccc2cc(C(=O)Nc3cccc(N4CCC(NCCN)CC4)c3)[nH]c12` [compound 452], the IC50 amounted to 5700 nM in assay [1] (Homo sapiens) and 60 nM in assay [2].
As to `CC(=O)N1C(C)CN(C2CCCC(NC(=O)c3cc4c(F)ccc(C)c4[nH]3)C2)CC1C` (stereo not drawn) [compound 1162], the IC50 came to 200 nM in assay [1] and 70 nM in assay [2].
Turning to `Cc1ccc(F)c2cc(C(=O)N[C@@H]3CCC[C@H](c4cccnc4)C3)[nH]c12` [compound 903], the IC50 in assay [1] (Homo sapiens) turned out to be 300 nM; in assay [2], 40 nM.
With `Cc1ccc(F)c2cc(C(=O)NC3CCCC(N4CCNCC4)C3)[nH]c12` (stereo not drawn) [compound 956], the IC50 in assay [1] was 700 nM; in assay [2], 100 nM.
As to `Cc1ccc(F)c2cc(C(=O)N[C@@H]3CCC[C@@H](N4CCN5C(=O)N(C)C[C@H]5C4)C3)[nH]c12` [compound 1128], the figures for the IC50 in assay [1] (Homo sapiens) and in assay [2] were 1600 nM and 300 nM, respectively.
Turning to `Cc1ccc(F)c2cc(C(=O)Nc3cccc(C4(N)CC4)c3)[nH]c12` [compound 395], the IC50 stood at 2200 nM in assay [1] and 100 nM in assay [2].
In the case of `Cc1ccc(F)c2cc(C(=O)Nc3cccc(-c4cnn5ccccc45)c3)[nH]c12` [compound 290], the values for the IC50 in assay [1] (Homo sapiens) and in assay [2] were 1100 nM and 400 nM, respectively.
On to `Cc1ccc(F)c2cc(C(=O)Nc3cccc(C(=O)N(C)C)c3)[nH]c12` [compound 329], for which the IC50 in assay [1] (Homo sapiens) was 1600 nM; in assay [2], 600 nM.
In the case of `CC(=O)N1[C@H](C)CN([C@@H]2CCC[C@@H](NC(=O)c3cc4c(F)ccc(C)c4[nH]3)C2)C[C@H]1C` [compound 1193], the IC50 was > 2000 nM in assay [1] (Homo sapiens) and 600 nM in assay [2].
In the case of `Cc1ccc(F)c2cc(C(=O)N[C@@H]3CCC[C@@H](N4CCn5cncc5C4)C3)[nH]c12` [compound 992], the values for the IC50 in assay [1] (Homo sapiens) and in assay [2] were > 2000 nM and 1900 nM, respectively.
For `Cc1ccc(F)c2cc(C(=O)Nc3cnc(C4CCN(C)CC4)[nH]3)[nH]c12` [compound 562], the IC50 in assay [1] (Homo sapiens) was > 25000 nM; in assay [2], > 10000 nM.
Regarding `Cc1cccc2cc(C(=O)NCCc3ccccc3N3CCC(CCN(C)C)CC3)[nH]c12` [compound 549], the values for the IC50 in assay [1] and in assay [2] were > 25000 nM and 5800 nM, respectively.
Consider `COCC(=O)N1CCN(c2cc(F)cc(NC(=O)c3cc4c(F)ccc(C)c4[nH]3)c2)CC1` [compound 12], for which the IC50 in assay [1] stood at 50 nM; in assay [2], 10 nM.
Regarding `Cc1ccc(F)c2cc(C(=O)Nc3cc(F)cc(N4CCC(N5CCN(CC(=O)N(C)C)CC5)C4)c3)[nH]c12` (stereo not drawn) [compound 4], the IC50 is 30 nM in assay [1] and 6 nM in assay [2].
For the molecule `Cc1cc(C(=O)N[C@H]2CC[C@H]2N)cnc1C(NC(=O)c1cc2cccc(C)c2[nH]1)C1CC1` (stereo partly drawn) [compound 451], the IC50 in assay [1] (Homo sapiens) worked out at 5600 nM; in assay [2] it was 400 nM.
With `Cc1ccc(F)c2cc(C(=O)NC3CCCC(N4CCN5C(=O)COCC5C4)C3)[nH]c12` (stereo not drawn) [compound 1067], the IC50 was determined as 1200 nM in assay [1] and 900 nM in assay [2].
As for `Cc1c(NC(=O)c2cc3c(F)ccc(C)c3[nH]2)cccc1N1CCN(C)CC1` [compound 320], the IC50 turned out to be 1400 nM in assay [1] (Homo sapiens) and 200 nM in assay [2].
With `Cc1cccc2cc(C(=O)NCc3ccccc3N3CCN(C)CC3)[nH]c12` [compound 554], the IC50 in assay [1] is > 25000 nM; in assay [2], 8700 nM.
As for `Cc1cccc2cc(C(=O)NCCc3ccccc3-n3ccnc3)[nH]c12` [compound 580], the IC50 was > 25000 nM in assay [1] (Homo sapiens) and 24500 nM in assay [2].
On to `Cc1ccc(F)c2cc(C(=O)Nc3cccc(N4CCN(C)CC4c4ccccc4)c3)[nH]c12` (stereo not drawn) [compound 539], for which the IC50 in assay [1] is > 25000 nM; in assay [2], 1600 nM.
Take `CC(=O)N1CCN([C@@H]2CCC[C@@H](NC(=O)c3cc4c(F)ccc(C)c4[nH]3)C2)C[C@H]1C` [compound 931]: the IC50 in assay [1] (Homo sapiens) was > 2000 nM; in assay [2], 1100 nM.
As for `Cc1ccc(F)c2cc(C(=O)Nc3cccc(N4CCC5(CC4)COCCN5)c3)[nH]c12` [compound 95], the figures for the IC50 in assay [1] (Homo sapiens) and in assay [2] were 200 nM and 20 nM, respectively.
Take `Cc1ccc(F)c2cc(C(=O)Nc3cccc(N4CCN(C(=O)CO)CC4)c3)[nH]c12` [compound 72]: the IC50 in assay [1] stood at 200 nM; in assay [2], 30 nM.
`Cc1ccc(F)c2cc(C(=O)NC(c3nc4ccccn4c3C)C3CC3)[nH]c12` (stereo not drawn) [compound 400]: the IC50 in assay [1] was determined as 2400 nM; in assay [2], 300 nM.
On to `Cc1ccc(F)c2cc(C(=O)Nc3cccc(N4CC[C@@H](N(C)C)C[C@H]4C)c3)[nH]c12` [compound 308], for which the IC50 in assay [1] (Homo sapiens) is 1300 nM; in assay [2], 100 nM.
Take `Cc1ccc(F)c2cc(C(=O)NC3CCCC(N4CCC(N(C)C(=O)C5CC5)C4)C3)[nH]c12` (stereo not drawn) [compound 972]: the results for the IC50 in assay [1] and in assay [2] were > 2000 nM and 4900 nM, respectively.
In the case of `Cc1cccnc1C(Cc1ccc(CN2CCOCC2)cc1)NC(=O)c1cc2c(F)ccc(C)c2[nH]1` (stereo not drawn) [compound 358], the IC50 in assay [1] is > 2000 nM; in assay [2], 900 nM.
Take `CC(=O)N1CCN(C2COCC(NC(=O)c3cc4c(F)ccc(C)c4[nH]3)C2)CC1` (stereo not drawn) [compound 986]: the IC50 in assay [1] was determined as 200 nM; in assay [2], 60 nM.
On to `COc1cccc2cc(C(=O)NC(CCC(=O)N3CCOCC3)c3ncccc3C)[nH]c12` (stereo not drawn) [compound 515], for which the IC50 in assay [1] was 18500 nM; in assay [2] it was 25100 nM.
For the molecule `Cc1cccc2cc(C(=O)N3CCCC34CCc3ccccc34)[nH]c12` (stereo not drawn) [compound 619], the IC50 in assay [1] (Homo sapiens) was > 25000 nM; in assay [2] it was > 200000 nM.
For the molecule `Cc1ccc(F)c2cc(C(=O)Nc3cccc(N4CC5CCCNC5C4)c3)[nH]c12` (stereo not drawn) [compound 124], the values for the IC50 in assay [1] (Homo sapiens) and in assay [2] were 300 nM and 7 nM, respectively.
The matching figures for `Cc1ccc(F)c2cc(C(=O)Nc3cccc(-n4cnc(CN(C)C)n4)c3)[nH]c12` [compound 276]: 900 nM and 90 nM.
On to `CCN(C(=O)CO)C1CCN(C2CCCC(NC(=O)c3cc4c(F)ccc(C)c4[nH]3)C2)C1` (stereo not drawn) [compound 1130], for which the IC50 is > 2000 nM in assay [1] and 4000 nM in assay [2].
Take `Cc1ccc(F)c2cc(C(=O)Nc3cccc(N4CCC5(CC4)CN(C)C5)c3)[nH]c12` [compound 98]: the IC50 in assay [1] amounted to 200 nM; in assay [2] it was 9 nM.
On to `Cc1ccc(F)c2cc(C(=O)Nc3nnc(C4CCN(C)CC4)o3)[nH]c12` [compound 557], for which the IC50 in assay [1] (Homo sapiens) was > 25000 nM; in assay [2], > 10000 nM.
With `CC(=O)N1CCN([C@H]2CCC[C@@H](NC(=O)c3cc4c(F)ccc(C)c4[nH]3)C2)CC12CC2` [compound 1025], the IC50 in assay [1] (Homo sapiens) stood at 30 nM; in assay [2], 20 nM.
The like results for `COCC(=O)N(C)[C@H]1CCN([C@H]2CCC[C@@H](NC(=O)c3cc4c(F)ccc(C)c4[nH]3)C2)C1` [compound 1043] were, in that order, 40 nM and 8 nM.
For the molecule `Cc1ccc(F)c2cc(C(=O)Nc3cccc(N4CCN(C)C4=O)c3)[nH]c12` [compound 191], the values for the IC50 in assay [1] (Homo sapiens) and in assay [2] were 400 nM and 30 nM, respectively.
The matching figures for `Cc1ccc(F)c2cc(C(=O)Nc3cccc(-c4cn5ccccc5n4)c3)[nH]c12` [compound 286]: 1000 nM and 100 nM.
For the molecule `Cc1ccc(F)c2cc(C(=O)Nc3cc(Cl)cc(CN4CCOCC4)c3)[nH]c12` [compound 333], the IC50 was 1600 nM in assay [1] and 300 nM in assay [2].
With `CC(=O)N1CCN(C2CC(NC(=O)c3cc4c(F)ccc(C)c4[nH]3)CN(C)C2)CC1` (stereo not drawn) [compound 1109], the IC50 is > 2000 nM in assay [1] and > 10000 nM in assay [2].
For `Cc1cccnc1C1(NC(=O)c2cc3cccc(C)c3[nH]2)CNC1` [compound 591], the IC50 in assay [1] (Homo sapiens) is > 25000 nM; in assay [2], > 50000 nM.
`Cc1ccc(F)c2cc(C(=O)Nc3cccc(N4CCCC4=O)c3)[nH]c12` [compound 118]: the figures for the IC50 in assay [1] (Homo sapiens) and in assay [2] were 200 nM and 50 nM, respectively.
On to `Cc1cccc2cc(C(=O)NCCc3cc(Cl)ccc3N3CCOCC3)[nH]c12` [compound 622], for which the IC50 was > 25000 nM in assay [1] and > 200000 nM in assay [2].
`Cc1ccc(F)c2cc(C(=O)N[C@@H]3CCC[C@H](N4CCN(C(=O)CO)CC4)C3)[nH]c12` [compound 870]: the IC50 amounted to 40 nM in assay [1] (Homo sapiens) and 10 nM in assay [2].
